Assay results published in US20080194585A1, “Fungicidal Pyrazine Derivatives” (priority 2005, published 2008).
Marks after values point to notes of the source that are not given here.

Legend:
[1] = tested on: Erysiphe graminis f. sp. tritici; test: Test L: wheat powdery mildew, preventive spray on wheat seedlings; settings: 100 = 100% disease control
[2] = tested on: Pythium aphanidermatum; test: Test A: bluegrass pythium blight, preventive spray on bluegrass seedlings; settings: 200 ppm; 100 = 100% disease control, 0 = no control relative to controls
[3] = tested on: Colletotrichum orbiculare; test: Test B: cucumber Colletotrichum anthracnose, preventive spray on cucumber seedlings; settings: 100 = 100% disease control
[4] = tested on: Septoria nodorum; test: Test H: wheat glum blotch, preventive spray on wheat seedlings; settings: 100 = 100% disease control
Description: (the causal agent of wheat glum blotch) and incubated in a saturated atmosphere at 20° C. for 48 h, and then moved to a growth chamber at 22° C. for 5 days, after which disease ratings were made.

[5] = tested on: Puccinia recondita f. sp. tritici; test: Test K: wheat leaf rust, preventive spray on wheat seedlings; settings: 200 ppm; 100 = 100% disease control, 0 = no control relative to controls
[6] = tested on: Botrytis cinerea; test: Test E: tomato botrytis, preventive spray on tomato seedlings; settings: 100 = 100% disease control
[7] = tested on: fusarium graminearium; test: Test I: wheat head scab, preventive spray on wheat seedlings; settings: 100 = 100% disease control
Description: (the causal agent of wheat head scab) and incubated in a saturated atmosphere at 20° C. for 72 h, and then moved to a growth chamber at 22° C. for 5 days, after which disease ratings were made.

[8] = tested on: Rhizoctonia oryzae; test: Test G: turf brown patch, preventive spray on creeping bent grass seedlings; settings: 100 = 100% disease control
Description: (the causal agent of turf brown patch) and incubated in a saturated atmosphere at 27° C. for 24 h, and then moved to a growth chamber at 27° C. for 5 days, after which disease ratings were made.

[9] = tested on: Phytophthora infestans; test: whole plant or invertebrate; type: in vivo; settings: 100 = 100% disease control
[10] = tested on: Plasmopara viticola; test: Test D: grape downy mildew, spray after inoculation of grape seedlings; type: in vivo; settings: 100 = 100% disease control
Description: Upon removal, disease ratings were made. […] A dash (-) indicates no test results.

[11] = tested on: Septoria tritici; test: Test J: wheat leaf blotch, preventive spray on wheat seedlings; type: in vivo; settings: 40 ppm (marked *); 100 = 100% disease control, 0 = no control
Description: A dash (-) indicates no test results.

[12] = 200 ppm, 0 = no control relative to controls
[13] = 40 ppm (marked *), 0 = no control

| Structure (SMILES) | Test L disease control rating [1, 12] | Test A disease control rating [2] | Test B disease control rating [3, 12] | Test H disease control rating [4, 12] | Test K disease control rating [5] | Test E disease control rating [6, 12] | Test I disease control rating [7, 12] | Test G disease control rating [8, 12] | Test F disease control rating [9, 12] | Test D disease control rating [10, 12] | Test J disease control rating [11] | Test D disease control rating [10, 13] | Test L disease control rating [1, 13] | Test B disease control rating [3, 13] | Test H disease control rating [4, 13] | Test E disease control rating [6, 13] | Test I disease control rating [7, 13] | Test G disease control rating [8, 13] | Test F disease control rating [9, 13] |
| --- | --- | --- | --- | --- | --- | --- | --- | --- | --- | --- | --- | --- | --- | --- | --- | --- | --- | --- | --- |
| CCC(C)c1c(Cl)nc(-n2ccc(C)n2)c(=O)n1CC(C)C (stereo not drawn) [compound 390] | 100% | 0% | 0% | 0% | 100% | 98% | 0% | 99% | 0% | 8% | – | – | – | – | – | – | – | – | – |
| CC(C)Cn1c(-c2c(F)cccc2F)c(I)nc(-c2ccccn2)c1=O [compound 401] | 98% | – | 0% | 95% | – | 96% | 0% | 85% | 0% | – | 32* % | 0* % | – | – | – | – | – | – | – |
| O=c1c(-n2cccn2)nc(Cl)c(-c2c(F)cc(F)cc2F)n1-c1ccc(Cl)c(Cl)c1 [compound 402] | – | – | – | – | – | – | – | – | – | – | 99* % | 0* % | 57* % | 98* % | 100* % | 99* % | 0* % | 0* % | 0* % |
| Cc1ccn(-c2nc(Cl)c(-c3c(F)cc(F)cc3F)n(-c3ccc(Cl)c(Cl)c3)c2=O)n1 [compound 403] | – | – | – | – | – | – | – | 0% | – | – | 98* % | 0* % | 99* % | 99* % | 100* % | 99* % | 0* % | – | 0* % |
| O=c1c(-n2cccn2)nc(Cl)c(-c2c(F)cc(F)cc2F)n1-c1cc(Cl)cc(Cl)c1 [compound 404] | – | – | – | – | – | – | – | – | – | – | 97* % | 0* % | 0* % | 0* % | 100* % | 98* % | 0* % | 9* % | 0* % |
| Cc1ccn(-c2nc(Cl)c(-c3c(F)cc(F)cc3F)n(-c3cc(Cl)cc(Cl)c3)c2=O)n1 [compound 405] | – | – | – | – | – | – | – | – | – | – | 99* % | 0* % | 0* % | 36* % | 98* % | 99* % | 0* % | 17* % | 0* % |
| O=c1c(-n2cccn2)nc(Cl)c(-c2c(F)cc(F)cc2F)n1-c1ccc(F)c(Cl)c1 [compound 406] | – | – | – | – | – | – | – | – | – | – | 100* % | 0* % | 0* % | 84* % | 99* % | 99* % | 0* % | 50* % | 0* % |
| Cc1ccn(-c2nc(Cl)c(-c3c(F)cc(F)cc3F)n(-c3ccc(F)c(Cl)c3)c2=O)n1 [compound 407] | – | – | – | – | – | – | – | – | – | – | 99* % | 0* % | 0* % | 32* % | 99* % | 99* % | 0* % | 9* % | 0* % |
| O=c1c(-n2cccn2)nc(Cl)c(-c2c(F)cc(F)cc2F)n1-c1ccc(F)cc1 [compound 408] | – | – | – | – | – | – | – | – | – | – | 99* % | 0* % | 99* % | 98* % | 100* % | 99* % | 0* % | 91* % | 0* % |
| Cc1ccn(-c2nc(Cl)c(-c3c(F)cc(F)cc3F)n(-c3ccc(F)cc3)c2=O)n1 [compound 409] | – | – | – | – | – | – | – | – | – | – | 99* % | 0* % | 60* % | 98* % | 99* % | 99* % | 0* % | 24* % | 0* % |
| O=c1c(-n2cccn2)nc(Cl)c(-c2c(F)cc(F)cc2F)n1-c1cc(F)c(F)c(F)c1 [compound 410] | – | – | – | – | – | – | – | – | – | – | 98* % | 0* % | 0* % | 97* % | 99* % | 99* % | 0* % | 17* % | 0* % |
| Cc1ccn(-c2nc(Cl)c(-c3c(F)cc(F)cc3F)n(-c3cc(F)c(F)c(F)c3)c2=O)n1 [compound 411] | – | – | – | – | – | – | – | – | – | – | 98* % | 0* % | 87* % | 98* % | 99* % | 99* % | 0* % | 16* % | 0* % |
| CCn1c(-c2ccc(F)cc2Cl)c(Cl)nc(C(N)=O)c1=O [compound 412] | – | – | – | – | – | – | 0% | – | 9% | 16% | 0* % | – | 0* % | 0* % | 0* % | 29* % | – | 0* % | – |
| O=c1c(-n2cccn2)nc(Cl)c(-c2c(F)cc(F)cc2F)n1C1CCCCC1 [compound 418] | 100% | 0% | 99% | 100% | 99% | 99% | 0% | 99% | 0% | 47% | – | – | – | – | – | – | – | – | – |
| CCC(C)Cn1c(-c2ccc(OC)cc2F)c(Cl)nc(-n2cccn2)c1=O (stereo not drawn) [compound 421] | 94% | 0% | 99% | 100% | 100% | 99% | 0% | 34% | 0% | 3% | – | – | – | – | – | – | – | – | – |
